Laboratory results taken from patent US9221868B2, “Uridine di- or tri-phosphate derivatives and uses thereof” (BAR-ILAN UNIVERSITY, priority 2010, dated 2015).
“And” between values parts separate entries of the source, which are not always exact repeats. Identical values can stand only once.

Experiments:
[1] = Stability in human blood serum (HPLC); settings: for half-life at 0.14 mg/ml: human, human blood serum diluted in RPMI-1640
Method: Human blood serum was obtained from a blood bank (Tel-Hashomer Hospital, Israel). All stability experiments were performed in duplicates.
The assay mixture containing 0.1 mg each analogue in deionized water (4.5 μl), human blood serum (180 μl) and RPMI-1640 medium (540 μl) (Eliahu et al., 2010a) was incubated at 37° C. for 0-24 h. At 0.5-12 h intervals, each sample was heated to 80° C. for 30 min, treated with CM Sephadex (1-2 mg), shaken for 2 h and centrifuged for 6 min (12000 rpm), and the aqueous layer was collected and extracted with chloroform (2×500 μl). The aqueous layer was freeze-dried and then dissolved in deionized water (100 μl). Samples were loaded onto an activated Starta X-AW weak anion exchange cartridge, washed with H2O (1 ml) and eluted with MeOH:H2O (1:1, 1 ml) followed by NH4OH:MeOH:H2O (2:25:73, 1 ml), and then freeze-dried. The resulting residue was analyzed by HPLC on a Gemini analytical column (5μ C-18 557 110 A; 150 mm×4.60 mm), using gradient elution with solvent system I (for UDP and 12—A:B 96:4 over 10 min) or II (for uridine-5′-O-(α-borano diphosphate) and 13A—A:B 97.5:2.5 over 10 min) at a flow rate of 1 ml/min. […] The percentage of compound degradation was calculated vs. control, to take into consideration the degradation of the compounds due to the work up following the enzymatic reaction. Therefore, each of the samples was compared to a control which was put through the same workup, but to which no serum was added. The percentage of degradation was calculated from the area under the curve of the nucleoside monophosphate peak, after subtraction of the control, which is the amount of the nucleoside monophosphate peak formed due to chemical hydrolysis.

human NPP1 = target: T1, human NPP1 (Homo sapiens, UniProt P22413); test: Hydrolysis by NPP1 (HPLC); type: in vitro ADME; settings: 2 h at 37° C., pH 8.5
T1 construct: Center of Research in Rheumatology and Immunology, Laval University (Québec, Canada), provided and not purchased
T1 sequence (P22413 1-925): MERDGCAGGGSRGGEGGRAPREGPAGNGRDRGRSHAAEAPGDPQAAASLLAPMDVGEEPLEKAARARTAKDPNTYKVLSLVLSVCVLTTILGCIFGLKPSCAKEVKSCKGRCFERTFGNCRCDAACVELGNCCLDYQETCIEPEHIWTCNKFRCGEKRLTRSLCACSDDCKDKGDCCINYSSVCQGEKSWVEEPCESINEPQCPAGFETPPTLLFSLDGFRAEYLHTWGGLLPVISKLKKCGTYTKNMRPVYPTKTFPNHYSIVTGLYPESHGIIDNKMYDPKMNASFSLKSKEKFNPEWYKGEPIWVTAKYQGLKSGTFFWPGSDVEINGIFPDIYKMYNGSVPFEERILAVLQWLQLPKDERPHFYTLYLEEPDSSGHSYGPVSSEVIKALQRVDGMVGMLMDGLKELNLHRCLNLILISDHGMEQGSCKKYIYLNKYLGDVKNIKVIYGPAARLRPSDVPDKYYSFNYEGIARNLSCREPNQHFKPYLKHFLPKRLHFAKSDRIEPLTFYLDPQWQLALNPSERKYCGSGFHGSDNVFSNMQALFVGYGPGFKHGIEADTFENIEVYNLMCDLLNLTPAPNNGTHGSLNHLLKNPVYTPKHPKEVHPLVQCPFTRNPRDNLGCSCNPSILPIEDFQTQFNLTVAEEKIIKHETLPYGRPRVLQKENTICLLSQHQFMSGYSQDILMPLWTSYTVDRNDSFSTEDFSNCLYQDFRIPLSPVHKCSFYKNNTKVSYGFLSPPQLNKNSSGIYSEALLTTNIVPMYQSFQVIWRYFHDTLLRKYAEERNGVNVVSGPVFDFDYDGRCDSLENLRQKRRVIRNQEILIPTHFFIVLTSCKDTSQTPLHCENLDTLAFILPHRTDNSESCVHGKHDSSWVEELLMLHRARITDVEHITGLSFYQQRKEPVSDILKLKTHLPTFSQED
Method: (§1) All stability experiments were performed in duplicates.
(§2) In this study, the hydrolysis rate of analogue 13A as compared to UDP and analogue 12, by human NPP1 and NPP3 after incubation at 37° C. in appropriate buffer, was determined.
(§3) 56.15 μg or 57.78 μg of human NPP1 or NPP3 extract, respectively, was added to 0.575 ml the incubation mixture (1 mM […], 200 mM NaCl, 10 mM KCl and 100 mM Tris, pH 8.5) and preincubated at 37° C. for 3 min. Reaction was initiated by the addition of 0.015 ml of 4 mM of UDP, 12 or 13A. The reaction was stopped after incubation of 2 h or 3 h with NPP1 or NPP3, respectively, by transferring a 0.1 ml aliquot from the reaction mixture to 0.350 ml ice-cold 1 M perchloric acid. These samples were centrifuged for 1 min at 10000×g. Supernatants were neutralized with 1 M KOH in 4° C. and centrifuged 1 min at 10000×g. The reaction mixture was filtered and freeze-dried.

physchem = settings: for half-life / Half-life (t1/2) of hydrolysis at pH 1.4: buffer, pH 1.4; for Rate constant of phosphate ester hydrolysis at pH 1.4: pH 1.4, 37° C., pseudo-first-order
Method: as §1
The stability of UDP, 11, 12 and 13A in a buffer solution (pH 1.4) was evaluated by ^31P NMR at 37° C. for monitoring possible dephosphorylation products (the signal of the phosphate hydrolysis products is at ˜0 ppm, while that of the borano phosphate analogues is at ˜85 ppm). NMR spectra were recorded on a Bruker DMX-600 spectrometer with a ^31P NMR probe (isotope frequency of 240 MHz) using 85% H3PO4 as an external reference.
Sodium salts of UDP, 11, 12 and 13A were dissolved in 0.45 ml of KCl/HCl buffer (pH 1.4) and D2O (0.05 ml) was added. The final pH was adjusted to pH 1.4. pH measurements were performed with an Metrohm pH electrode and a Metrohm 827 meter. Spectra were recorded at 15 min, 1 h, or 24 h time intervals at 37° C. For experiments that were several days long, the solution was kept in an oil bath at 37° C. and spectra were recorded at ca. 24 h time intervals. The phosphate ester hydrolysis rate was determined by measuring the change of the integration of one of the phosphates signals of the starting material with time.

human NPP3 = target: T2, human NPP3 (Homo sapiens, UniProt O14638); test: Hydrolysis by NPP3 (HPLC); type: in vitro ADME; settings: 3 h at 37° C., pH 8.5
T2 construct: Center of Research in Rheumatology and Immunology, Laval University (Québec, Canada), provided and not purchased
T2 sequence (O14638 1-875): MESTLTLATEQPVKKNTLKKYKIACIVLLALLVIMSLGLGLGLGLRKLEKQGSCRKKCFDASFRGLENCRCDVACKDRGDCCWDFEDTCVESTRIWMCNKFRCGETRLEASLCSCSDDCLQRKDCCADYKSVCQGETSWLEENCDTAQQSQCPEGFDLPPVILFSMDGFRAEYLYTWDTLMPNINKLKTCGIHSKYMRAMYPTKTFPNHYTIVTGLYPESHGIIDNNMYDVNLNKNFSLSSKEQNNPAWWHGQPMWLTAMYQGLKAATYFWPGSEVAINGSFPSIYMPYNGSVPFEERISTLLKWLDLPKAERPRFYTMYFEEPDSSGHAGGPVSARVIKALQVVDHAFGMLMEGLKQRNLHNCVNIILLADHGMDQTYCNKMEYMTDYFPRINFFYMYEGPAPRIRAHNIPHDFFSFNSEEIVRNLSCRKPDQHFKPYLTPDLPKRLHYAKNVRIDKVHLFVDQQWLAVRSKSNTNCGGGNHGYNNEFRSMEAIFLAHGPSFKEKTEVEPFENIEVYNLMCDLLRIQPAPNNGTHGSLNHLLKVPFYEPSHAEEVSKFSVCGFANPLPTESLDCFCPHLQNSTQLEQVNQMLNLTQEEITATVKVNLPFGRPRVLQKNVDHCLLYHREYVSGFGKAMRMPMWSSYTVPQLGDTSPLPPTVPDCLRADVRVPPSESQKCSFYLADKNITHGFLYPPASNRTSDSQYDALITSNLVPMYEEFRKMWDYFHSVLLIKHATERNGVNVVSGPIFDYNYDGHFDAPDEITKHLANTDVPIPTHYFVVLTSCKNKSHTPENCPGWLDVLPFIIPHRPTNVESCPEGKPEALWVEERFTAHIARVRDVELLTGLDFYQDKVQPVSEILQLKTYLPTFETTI
Method: as §1, §2, §3

[BH3-][P+](O)(OCC1OC(n2cc(OC)c(=O)[nH]c2=O)C(O)C1O)OP(=O)(O)O (single isomer, unassigned) [Analogue 13A, 5-methoxyuridine-5′-O-(α-boranodiphosphate)]
half-life at 0.14 mg/ml [1]: 17 h
Hydrolysis percentage by NPP1 (human NPP1): 15%
half-life (physchem): 16.9 h
Hydrolysis percentage by NPP3 (human NPP3): 28%

COc1cn([C@@H]2O[C@H](COP(=O)(O)OP(=O)(O)O)[C@@H](O)[C@H]2O)c(=O)[nH]c1=O [Analogue 12, 5-methoxyuridine diphosphate]
half-life at 0.14 mg/ml [1]: 11.9 h
Hydrolysis percentage by NPP1 (human NPP1): 49% and 51%
Half-life (t1/2) of hydrolysis at pH 1.4 (physchem): 13 days
half-life (physchem): ~312 h
Rate constant of phosphate ester hydrolysis at pH 1.4 (physchem): 6.25×10^−7 s^−1
Hydrolysis percentage by NPP3 (human NPP3): 36%

O=c1ccn([C@@H]2O[C@H](COP(=O)(O)OP(=O)(O)O)[C@@H](O)[C@H]2O)c(=O)[nH]1 [UDP, reference compound]
Half-life in human blood serum ([1]; human blood serum and RPMI-1640, 37° C.): 2.4 h
Hydrolysis percentage by NPP1 (human NPP1): 50%
Half-life (t1/2) of hydrolysis at pH 1.4 (physchem): ~12 days
Rate constant of phosphate ester hydrolysis at pH 1.4 (physchem): 6.66×10^−7 s^−1
Hydrolysis percentage by NPP3 (human NPP3): 45%
